Measurements published in ChEMBL document CHEMBL4680293, “Tubulin inhibitory activity of a novel colchicine-binding compounds based on a dinaphthospiropyranran scaffold” (Bioorg Med Chem, 2021).

Columns and labels:
[1] = system: OVCAR-4; experiment: Anti-cancer activity against human OVCAR-4 cells assessed as cell growth inhibition measured after 48 hrs by SRB method; type: functional, cell-based
[2] = system: SNB-19; experiment: Anti-cancer activity against human SNB-19 cells assessed as cell growth inhibition measured after 48 hrs by SRB method; type: functional, cell-based
[3] = system: SNB-75; experiment: Anti-cancer activity against human SNB-75 cells assessed as cell growth inhibition measured after 48 hrs by SRB method; type: functional, cell-based
[4] = system: DU-145; experiment: Anti-cancer activity against human DU-145 cells assessed as cell growth inhibition measured after 48 hrs by SRB method; type: functional, cell-based
[5] = system: M14; experiment: Anti-cancer activity against human M14 cells assessed as cell growth inhibition measured after 48 hrs by SRB method; type: functional, cell-based
[6] = system: BT-549; experiment: Anti-cancer activity against human BT-549 cells assessed as cell growth inhibition measured after 48 hrs by SRB method; type: functional, cell-based
[7] = system: HCT-15; experiment: Anti-cancer activity against human HCT-15 cells assessed as cell growth inhibition measured after 48 hrs by SRB method; type: functional, cell-based
[8] = Anti-cancer activity against human central nervous system cells assessed as cell growth inhibition measured after 48 hrs by SRB method; type: functional; conditions: CNS cell
[9] = system: Hs-578T; experiment: Anti-cancer activity against human HS-578T cells assessed as cell growth inhibition measured after 48 hrs by SRB method; type: functional, cell-based
[10] = system: OVCAR-3; experiment: Anti-cancer activity against human OVCAR-3 cells assessed as cell growth inhibition measured after 48 hrs by SRB method; type: functional, cell-based
[11] = system: SK-MEL-5; experiment: Anti-cancer activity against human SK-MEL-5 cells assessed as cell growth inhibition measured after 48 hrs by SRB method; type: functional, cell-based
[12] = system: SK-MEL-2; experiment: Anti-cancer activity against human SK-MEL-2 cells assessed as cell growth inhibition measured after 48 hrs by SRB method; type: functional, cell-based
[13] = Anti-cancer activity against human ovarian cancer cells assessed as cell growth inhibition measured after 48 hrs by SRB method; type: functional; conditions: Ovarian cancer cell line
[14] = system: 786-0; experiment: Anti-cancer activity against human 786-0 cells assessed as cell growth inhibition measured after 48 hrs by SRB method; type: functional, cell-based

Q: Which results are given for `C1=C2CNCC3=Cc4c(ccc5ccccc45)OC23Oc2ccc3ccccc3c21`?
A: IC50 ([1]; OVCAR-4, 48 h): 11.7 µM; GI50 ([1]; OVCAR-4, time 48 hrs): 4.68 µM; LC50 ([1]; OVCAR-4, time 48 hrs): 4.21 µM; TGI ([1]; OVCAR-4, time 48 hrs): 20 µM; IC50 ([2]; SNB-19, 48 h): 15.8 µM; GI50 ([2]; SNB-19, time 48 hrs): 6.92 µM; LC50 ([2]; SNB-19, time 48 hrs): 4 µM; TGI ([2]; SNB-19, time 48 hrs): 29.5 µM; IC50 ([3]; SNB-75, 48 h): 11.2 µM; GI50 ([3]; SNB-75, time 48 hrs): 2.34 µM; LC50 ([3]; SNB-75, time 48 hrs): 4.18 µM; TGI ([3]; SNB-75, time 48 hrs): 11.5 µM; IC50 ([4]; DU-145, 48 h): 4.68 µM; GI50 ([4]; DU-145, time 48 hrs): 3.31 µM; TGI ([4]; DU-145, time 48 hrs): 11.2 µM; CC50 ([4]; DU-145, time 48 hrs, read-out: LC50 (the source's name)): 4.41 µM; IC50 ([5]; M14, 48 h): 3.8 µM; GI50 ([5]; M14, time 48 hrs): 2.19 µM; TGI ([5]; M14, time 48 hrs): 5.13 µM; CC50 ([5]; M14, time 48 hrs, read-out: LC50 (the source's name)): 4.56 µM; IC50 ([6]; BT-549, 48 h): 40.7 µM; GI50 ([6]; BT-549, time 48 hrs): 11.2 µM; TGI ([6]; BT-549, time 48 hrs): 40.7 µM; CC50 ([6]; BT-549, time 48 hrs, read-out: LC50 (the source's name)): 4 µM; IC50 ([7]; HCT-15, 48 h): 5.5 µM; GI50 ([7]; HCT-15, time 48 hrs): 3.89 µM; LC50 ([7]; HCT-15, time 48 hrs): 4 µM; TGI ([7]; HCT-15, time 48 hrs): 22.4 µM; GI50 [8]: 3.8 µM; IC50 ([9]; 48 h): 100 µM; GI50 ([9]; time 48 hrs): 2.24 µM; TGI ([9]; time 48 hrs): 10.5 µM; CC50 ([9]; time 48 hrs, read-out: LC50 (the source's name)): 4 µM; IC50 ([10]; OVCAR-3, 48 h): 4.07 µM; GI50 ([10]; OVCAR-3, time 48 hrs): 2.34 µM; LC50 ([10]; OVCAR-3, time 48 hrs): 4.71 µM; TGI ([10]; OVCAR-3, time 48 hrs): 5.5 µM; IC50 ([11]; SK-MEL-5, 48 h): 6.03 µM; GI50 ([11]; SK-MEL-5, time 48 hrs): 3.16 µM; TGI ([11]; SK-MEL-5, time 48 hrs): 13.8 µM; CC50 ([11]; SK-MEL-5, time 48 hrs, read-out: LC50 (the source's name)): 4.33 µM; IC50 ([12]; SK-MEL-2, 48 h): 25.7 µM; GI50 ([12]; SK-MEL-2, time 48 hrs): 5.5 µM; TGI ([12]; SK-MEL-2, time 48 hrs): 22.9 µM; CC50 ([12]; SK-MEL-2, time 48 hrs, read-out: LC50 (the source's name)): 4.03 µM; GI50 [13]: 3.63 µM; IC50 ([14]; 786-0, 48 h): 9.55 µM; GI50 ([14]; 786-0, time 48 hrs): 5.13 µM; TGI ([14]; 786-0, time 48 hrs): 31.6 µM
